Test results published in US20120070451A1, “METHODS AND COMPOSITIONS FOR MODULATING CARDIAC CONTRACTILITY” (Consiglio Nazionale Delle Ricerche, priority 2009, published 2012).

Assays:
Cavα1 = assay: Western blot of Cavα1 protein level in 293T cells co-transfected with Cavα1 and Cavβ2 variants; type: cell-based
Experimental: FIG. 5. Akt phosphorylation of Cavβ2 protects Cavα1 from protein degradation. (A-C) YFP-Cavα1 co-transfected 293T cells with the indicated mutant variant of Cavβ2. Cells were serum-starved overnight and treated with (A) […] or (B-C) 5 μM Akt inhibitor as indicated. The expression of YFP-Cavα1 in lysates was monitored by Western blot analysis with anti-YFP antibody, and normalized based on transfection efficiency (Cav(32) and protein amount (Tubulin) (n=3). (D) Cavα1 and Cavβ2 co-transfected 293T cells were treated with siAkt expressing vector as indicated. 3 days post transfection, cell lysate was tested by Western blot analysis. Protein loading was normalized to GAPDH levels. Representative experiments are shown (n=3).
FIG. 12. Cavβ2 interacts with Akt isoforms and Akt affects Cavα1 protein stability. (A) Immunoprecipitated Akt isoforms from WT cardiac extracts from mice treated or not with insulin (1 mU/g) assayed for Cavβ2. Input protein in each co-immunoprecipitation is shown. (B) Cavα1, Cavα1-ΔP, or Cavα1-ΔH co-transfected 293T cells with either Cavβ2 or Cavβ2-SE were infected with indicated active (AdAkt) or dominant negative (AdAktDN) Akt expressing adenoviral vectors. Cells were serum-starved overnight as indicated. The expression of Cavα1 and phosphorylation of GSK in lysates was monitored by Western blot analysis. (C) Cavα1, Cavα1-ΔP, or Cavα1 co-transfected 293T cells with either Cavβ2 or Cavβ2-SE were treated with siAkt expressing vector as indicated. 3 days post transfection, cells were lysated for protein extraction. Protein loading was normalized to GAPDH levels. Representative experiments are shown (n=3).
To directly assess whether Akt phosphorylation of Cavβ2 protects Cavα1 from protein degradation, we constructed a mutant of Cavβ2 in which the Serine 625, contained in the putative Akt—consensus site (R—X—X—R—S/T), was replaced by Glutamate (Cavβ2-SE) to mimic phosphorylation. […]
Proteins expression was evaluated in total lysates or cell fractions by Western blot analysis according to standard procedures. […]

Cavβ2 = Cavβ2 phosphorylation in hearts of insulin-treated mice (PAS antibody); type: in vivo, mouse; conditions: 1 mU/g insulin, 20 min post treatment
Experimental: FIG. 4. Akt interacts with and phosphorylates Cavβ2. (A) Coimmunoprecipitation assay of Akt and Cavβ2. Ventricular homogenates from WT and HA-E40K-Akt transgenic mice (Tg Akt) immunoprecipitated with antibodies against HA and immunoblotted for Cavβ2 as well as HA as a control. (B) Examination of Cavβ2 phosphorylation by Akt. In vitro kinase assays were performed with immunoprecipitated Cavβ2 incubated with recombinant active Akt and ^32P labeled ATP (left) or immunoprecipitated Cavβ2 from WT and KO cardiac extracts from mice treated or not with insulin (1 mU/g) using PAS (Phospho-Akt Substrate) antibody (right). (C) Back-phosphorylation assay of Cavβ2 from WT and KO hearts. Immunoprecipitated Cavβ2 from solubilized membranes was in vitro back-phosphorylated using recombinant active Akt and [γ^32]ATP. Precipitate amounts were assayed for ^32PCavβ2 and total Cavβ2. Representative experiments are shown (n=4).
To determine whether Cavβ2 can be phosphorylated by Akt, Cavβ2-immunoprecipitates from cardiac homogenates were incubated with recombinant active Akt and [γ-^32]ATP. A band corresponding to phosphorylated Cavβ2 was detected only in the presence of the kinase (FIG. 4B, left panel). To determine whether the Cavβ2 subunit was phosphorylated by Akt in vivo, we treated overnight-starved mice with 1 mU/g insulin to induce activation of Akt (Bayascas et al., 2008). […]

Cavα1 currents = assay: Whole-cell patch clamp Ca2+ current (ICa,L) in cotransfected tsA-201 cells with or without serum; type: cell-based; conditions: cotransfection with Cavα1; 36 h
Experimental: FIG. 6. Akt phosphorylation of Cavβ2 preserves Cavα1 currents. Ca^2+ currents recorded in cotransfected tsA-201 cells with YFP-Cavα1 and either Cavβ2-WT, Cavβ2-SE, or Cavβ2-SA mutant, cultivated for 36 h in the presence or absence of fetal bovine serum (10%). Currents were recorded 1-2 minutes after the whole-cell configuration was achieved (i.e. after stabilization of the current) and were elicited by a 0 mV depolarization of 200 ms duration applied from a holding potential of −80 mV. Currents are normalized to cell capacitance (Current density, pA/pF). Representative current traces are shown. n>35 at each condition, (*P<0.05 compared to YFP-Cavα1, ANOVA).
FIG. 7. […] (C) Wild-type Cavα1 subunit (alone or cotransfected with Cavβ2SE) and its in-frame ΔPEST mutants (Cavα1-ΔP and Cavα1-ΔH) half-lives were determined in COST cells. After overnight starvation, transfected cells were pulse-chased and analyzed along a time course (*P<0.001 compared to Cavα1, ANOVA; n=3). […] (F) Ca^2+ currents recorded in tsA-201 cells cotransfected with Cavβ2-WT and either Cavα1-WT or Cavα1-ΔH and cultivated for 36 h in the presence or absence of fetal bovine serum (10%). […]
Macroscopic Ice, was recorded at room temperature (˜22° C.) using the whole-cell patch clamp technique in native cells as previously described (Aimond et al., 2005; Maier et al., 2003). […]

| Substance | Cavα1 expression on insulin treatment (Cavα1; Cavβ2-WT cotransfected cells) | Phosphorylation of Cavβ2 in heart (Cavβ2) | Cavα1 protein level under Akt inhibitor (Cavα1; 5 μM Akt inhibitor) | Cavα1 protein levels compared to cotransfection with Cavβ2-WT (Cavα1; 293T cells cotransfected with Cavα1) | ICa,L in serum-free medium compared to serum-containing medium (Cavα1 currents) |
| --- | --- | --- | --- | --- | --- |
| insulin [reference compound] | increased | insulin-stimulated phosphorylation of Cavβ2 in WT but not in KO hearts | – | – | – |
| Cavβ2-SE: mutant of Cavβ2 in which Serine 625 in the Akt consensus site was replaced by Glutamate to mimic phosphorylation | – | – | counteracted the downregulation of Cavα1 | increased | completely counteracted this reduction |
